Laboratory results reported in US20250243208A1, “BICYCLIC HETEROCYCLES AS MRGPRX2 ANTAGONISTS” (Incyte Corporation, priority 2024, published 2025).
pIC50: −log10 of the molar value.

Key:
Type in all cases: cell-based
[1] = target: T1, MRGPRX2 (Homo sapiens, UniProt Q96LB1); assay: MRGPRX2 β-Arrestin recruitment assay (PathHunter CHO-K1); design: host or cells: PathHunter CHO-K1; conditions: PathHunter CHO-K1 cells, agonist Cortistatin 14 0.25 μM
T1 sequence (Q96LB1 1-330): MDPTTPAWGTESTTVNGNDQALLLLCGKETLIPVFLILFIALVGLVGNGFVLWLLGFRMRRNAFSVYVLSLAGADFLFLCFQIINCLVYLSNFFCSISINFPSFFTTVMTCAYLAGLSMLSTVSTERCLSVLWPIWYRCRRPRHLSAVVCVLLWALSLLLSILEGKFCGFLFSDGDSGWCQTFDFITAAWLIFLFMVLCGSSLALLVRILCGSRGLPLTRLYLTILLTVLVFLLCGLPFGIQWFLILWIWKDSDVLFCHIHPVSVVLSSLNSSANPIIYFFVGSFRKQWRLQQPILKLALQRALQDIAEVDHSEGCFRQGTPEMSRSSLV
Source text: Example C: MRGPRX2 β-Arrestin Assay
This assay measures compound inhibition of β-Arrestin recruitment, which is part of the G protein-independent pathway that results from the ligand-activated GPCR phosphorylation by specific GPCR kinases. The PathHunter CHO-K1 MRPGRX2 B-Arrestin Cell line stably expressing ProLink tagged MRGPRX2 and Enzyme Acceptor Tagged B-Arrestin was purchased from Eurofins DiscoverX, (Fremont, CA).
The cells were maintained in culture medium from the Europhins DiscoverX Cell Culture Kit-107 which includes FBS, hygromycin B and G418. For the assay, the cells were harvested and were resuspended with Cell Plating Reagent 2 (Eurofins DiscoverX). Cells were added 10000 cells in 25 μL/well to a 384-well black cell culture plate (Greiner VWR, Radnor, PA) which contained 125 nL/well of compound at a selected serially diluted concentration range or DMSO. The plate was incubated at 37° C. with 5% CO2 for 1 h. 2 μL/well of agonist Cortistatin 14 was diluted in Protein Dilution Buffer, (Eurofins DiscoverX) for a final concentration of 0.25 μM, was added and the plate was incubated at 37° C. with 5% CO2 for 90 min. 14 μL/well of Detection Reagent Mix (PathHunter Detection Kit, Eurofins DiscoverX) was added to the plates and further incubated for 1 h in the dark. Plates were read on the PHERAstar microplate reader (BMG Labtech Cary, NC) measuring luminescence 0.1 to 1 s per well. Data was normalized using DMSO only wells and wells with high concentration of reference antagonist as controls. Compound IC50 curves were globally fitted with 3- or 4-parameter Hill equation in a Genedata Screener (Genedata Basel, Switzerland).

[2] = target: T1, MRGPRX2; assay: MRGPRX2 FLIPR calcium mobilization assay; design: host or cells: CHO-K1; conditions: CHO-K1 cells, agonist Cortistatin-14 at EC80, Ca2+ release
Experimental: Example A. MRGPRX2 FLIPR Calcium Mobilization Assay
Chinese hamster ovary (CHO-K1) cells stably expressing human MRGPRX2 were purchased from Genescript (Piscataway, NJ). The cells were maintained in culture medium (Ham's F-12K) containing 10% (v/v) FBS, 200 μg/mL Zeocin, 100 units/mL penicillin G and 100 μg/mL streptomycin (Life Technologies, Carlsbad, CA). For the assay, the cells were harvested and resuspended with culture medium without Zeocin before plating at 8000 cells per well in 20 μL in 384-well black clear bottom cell culture plates (VWR, Radnor, PA). […] Ca^2+ release was measured with FLIPR Penta with 10 s basal fluorescence measurement, then 12.5 μL of 5× agonist Cortistatin-14 (Tocris, Minneapolis, MN) at final concentration corresponding to the EC80 were added followed with continued fluorescence signal monitoring for an additional 110 s. The base line adjusted (median of first 10s base line) max value of the Relative Fluorescence Unit (RFU) was plotted against compound concentrations. […]

[3] = target: T1, MRGPRX2; assay: MRGPRX2 IP1 HTRF assay; design: host or cells: CHO-K1; conditions: CHO-K1 cells, agonist Cortistatin 14 1 μM, IP1 accumulation
Source text: Example B: MRGPRX2 IP1 HTRF Assay
This assay measures compound inhibition of myo-Inositol 1 phosphate (IP1) accumulation in CHO-K1 cells. Chinese hamster ovary (CHO-K1) cells stably expressing human MRGPRX2 were purchased from GenScript (Piscataway, NJ).
For the HTRF IP1 determination, an IP-One GqKit (Perkin Elmer Cisbio, Waltham, MA), which includes all reagents and buffers in this protocol, was used. The cells were maintained in culture medium (Ham's F-12K) containing 10% (v/v) FBS, and 200 μg/mL Zeocin. For the assay, the cells were harvested and resuspended in culture medium with 2% FBS and without Zeocin, then were passed through a 40 μm filter. Cells were added at 20000 cells in a 5 μL/well to a 384-well white small volume cell culture plate (Greiner VWR, Radnor, PA) which contained 50 nL/well of test compound serially diluted at a selected concentration range in DMSO. 5 μL/well of prepared 2× Stimulation Buffer2 was then added to plates and was incubated at 37° C. with 5% CO2 for 1 h. 5 μL/well of agonist Cortistatin 14 (Bio-TechneR&D Systems, Minneapolis, MN) in 1× Stimulation Buffer 2, for a 1 μM final concentration, was then added to plates and incubated at 37° C. with 5% CO2 for 1 h. 6 μL/well of 1:20 diluted Detection Reagent Mix (d2 and Cryptate) was added to the plates and incubated for 1 h in the dark. Plates were read on the PHERAstar microplate reader (BMG Labtech Cary, NC) to determine the HTRF ratio of the acceptor and donor emission signals. The IP1 concentrations were calculated from a standard curve following the IP-One GQ kit instructions. Wells with DMSO only and wells with high concentration of reference antagonist were used as controls for normalization. Compound IC50 curves were globally fitted with 3- or 4-parameter Hill equation in a Genedata Screener (Genedata Basel, Switzerland).

Compound | pIC50 [1] | pIC50 [2] | pIC50 [3]
CC(CNc1cc(C(F)(F)F)nc2cc(C(F)(F)F)nn12)(c1ccc(F)cc1)C1CNC1 (racemic) [Example 13, N-(2-(Azetidin-3-yl)-2-(4-fluorophenyl)propyl)-2,5-bis(trifluoromethyl)pyrazolo[1,5-a]pyrimidin-7-amine] | 7.00 to 10.00 | 7.00 to 10.00 | –
CC(CNc1cc(C(F)(F)F)nc2cc(C(F)(F)F)nn12)(c1ccc(F)cc1)C1CN(/C(N)=N/C#N)C1 (racemic) [Example 14, 3-(1-((2,5-Bis(trifluoromethyl)pyrazolo[1,5-a]pyrimidin-7-yl)amino)-2-(4-fluorophenyl)propan-2-yl)-N′-cyanoazetidine-1-carboximidamide] | 7.00 to 10.00 | 7.00 to 10.00 | 7.00 to 10.00
